Measured values published in patent US20210322327A1, “EXTRACELLULAR VESICLES COMPRISING STING-AGONIST” (Codiak BioSciences, Inc., priority 2018, published 2021).

Columns and labels:
[1] = tested on: human peripheral blood mononuclear cells (PBMCs); assay: IFNβ production in PBMCs treated with exosome-encapsulated or free STING agonist; format: cell-based; conditions: free STING agonists, human PBMCs overnight
Procedure: Exosome-encapsulated STING agonist and free STING agonist were tested for activity in human peripheral blood mononuclear cells (PBMCs). PBMCs were isolated from fresh human blood by centrifugation over a layer of Lymphoprep at 1000×g for 15 minutes. The resulting buffy coat was washed in PBS and counted. PBMCs were plated in 96-well U-bottom plates. Titrations of the exosome-encapsulated (Exo-STING agonist) or free STING agonist were prepared in a separate U-bottom plate to perform dose-response studies. The exosome-encapsulated or free STING agonist was added to the PBMCs and incubated at 37° C. overnight. General activation of PBMCs by the STING agonist was detected by measuring the amount of IFNβ in the supernatant. […] To understand which cell types in PBMCs are differentially affected by Exo-STING agonist, monocyte and dendritic cell activation was measured. […] Monocytes were robustly activated by the STING agonist alone with over 90% becoming activated at micromolar concentrations of the agonist. […]
HEK293SF cells overexpressing PTGFRN were grown in shake flasks and the resulting exosomes were purified by Optiprep™ density gradient ultracentrifugation as described in the Methods. […] Loading was quantified as described in Example 1. […] Activation of PBMCs by the STING agonists was detected by measuring the amount of IFNβ in the supernatant. […]

[2] = Tumor pharmacokinetics after intratumoral injection; format: in vivo, C57BL/6 mice; conditions: B16F10 tumor
Procedure: To examine the tumor pharmacokinetics of STING agonist, C57BL/6 mice were inoculated subcutaneously with 1×10^6 B16F10 murine melanoma cells (n=3 mice per group and time). Eight days post-inoculation, the tumors were injected intratumorally with 30 μg of free 3-3 cAIMPdFSH, 0.3 μg of free 3-3 cAIMPdFSH, or 0.3 μg 3-3 cAIMPdFSH loaded in PTGFRN-overexpressing exosomes. Five minutes, thirty minutes, two hours, 6 hours, 24 hours, and 48 hours after injection, tumors were excised and lysed with 6 volume of plasma. The concentration of 3-3 cAIMPdFSH was measured by LC-MS/MS, as described in Example 1. Free 3-3 cAIMPdFSH in both 30 μg and 0.3 μg was disappeared quickly from tumor, having half-life of around 10 minutes.

[3] = tested on: B16F10 tumor and stroma area; assay: IFNβ in situ hybridization and CD8, F4/80 immunohistochemistry in B16F10 tumor sections; format: in vivo, C57BL/6 mice; conditions: 20 μg free
Procedure: Four groups of C57BL/6 mice (5 mice per group) were inoculated subcutaneously with 1×10^6 B16F10 tumor cells. Eight days post-inoculation the mice were injected intratumorally with dose of exosomes, 20 μg of free 3-3 cAIMPdFSH, 0.1 μg of free 3-3 cAIMPdFSH, or 0.1 μg of 3-3 cAIMPdFSH loaded in PTGFN-overexpressing exosomes (EXOSTING™). Half of the mice were injected again intratumorally at day 11 after the inoculation. Four- or 24-hours post-injection of each injection, the tumors were collected, cytokine levels were measured by in situ hybridization, and CD8 or F4/80 positive cells were counted by immunohistochemistry. Tumor area and stroma area were identified histologically. IFNβ gene expression levels in the tumor (FIG. 77A) and stroma (FIG. 77B) area were increased in the 20 μg free STING agonist and 0.1 μg EXOSTING™ groups at 4h after single dose. […] F4/80 positive cells were decreased in 20 μg free STING agonist group, but cells were recovered in 0.1 μg EXOSTING™ group (FIG. 78B).

E.G7-OVA cells = assay: E.G7-OVA T-cell lymphoma tumor growth, intratumoral injection; format: in vivo, C57BL/6 mice
Procedure: To test this hypothesis, C57BL/6 mice were inoculated subcutaneously with 1×10^6 E.G7-OVA cells (ATCC®; CRL-2113™), a murine T-cell lymphoma cell line engineered to stably express OVA and allow for modeling antigen-specific T-cell responses in mice (n=5 mice per group). Ten, 13, and 16 days post-inoculation the mice were injected intratumorally with PBS, 20 μg ML RR-S2, 0.2 μg ML RR-S2, or 0.2 μg ML RR-S2 loaded in PTGFRN-overexpressing exosomes). […] Splenic T-cells from all groups were isolated and measured for OVA-specific reactivity as described in Example 11.

Structure (SMILES)	IFNβ induction [1]	half-life in tumor ([2]; 0.3 μg free)	half-life in tumor ([2]; 30 μg free)	CD8 positive T cells [3]	F4/80 positive cells [3]	level of IFNβ in tumor and stroma area ([3]; 4h after second doses)	IFNβ gene expression in tumor and stroma area ([3]; 4h after single dose)	tumor growth compared to PBS (E.G7-OVA cells; 0.2 μg intratumoral days 10, 13, 16)	tumor growth compared to PBS (E.G7-OVA cells; 20 μg intratumoral days 10, 13, 16)
Nc1ncnc2c1ncn2[C@@H]1O[C@@H]2COP(=O)(S)O[C@H]3[C@@H](F)[C@H](n4cnc5c(=O)[nH]cnc54)O[C@@H]3COP(O)(=S)O[C@H]2[C@H]1F (stereo partly shown) [3-3 cAIMPdFSH, 3′3′-cAIMPdFSH]	induced IFNβ to a similar extent	around 10 minutes	around 10 minutes	not increased	decreased	significantly decreased	increased	–	–
Nc1ncnc2c1ncn2[C@@H]1O[C@@H]2COP(O)(=S)O[C@@H]3C(O)[C@@H](COP(O)(=S)O[C@H]2[C@H]1O)O[C@H]3n1cnc2c(N)ncnc21 (stereo partly shown) [ML RR-S2 CDA]	induced IFNβ to a similar extent	–	–	–	–	–	–	moderately attenuated tumor growth	dramatically prevented tumor growth
